Source: ChEMBL document CHEMBL5126581, “Chlorinated benzothiadiazines inhibit angiogenesis through suppression of VEGFR2 phosphorylation” (Bioorg Med Chem, 2022)

How the values were obtained:
[1] = Cytotoxicity against HEK293 cells assessed as inhibition of cell growth incubated for 72 hrs by MTS assay; format: toxicity, cell-based; details: human
MDA-MB-468 = test: Cytotoxicity against human MDA-MB-468 cells assessed as inhibition of cell growth incubated for 72 hrs by MTS assay; format: functional, cell-based; details: MDA-MB-468, 72 h
[2] = Cytotoxicity against HEK293 cells assessed as inhibition of cell growth at 50 uM incubated for 72 hrs by MTS assay relative to control; format: toxicity, cell-based; details: human

Which results are given for `CNC(=O)c1cc(Oc2ccc(NC(=O)Nc3ccc(Cl)c(C(F)(F)F)c3)cc2)ccn1` [SORAFENIB]?
IC50 at 72 h [1]: 2.95 µM; IC50 (MDA-MB-468): 7.31 µM; inhibition at 72 h, 50 µM [2]: 99%
